Source: ChEMBL document CHEMBL1201862, “PubChem BioAssay data set” (2004)
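Compound exposure: 48 hours, 5 concentrations, 96-well plates. GI50: concentration for 50% inhibition of growth.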 Active and inactive are the calls of the source. Cut-off read from the data, not from the text of the source: active = GI50 up to about 1.1 µM and inactive = higher.

Columns and labels:
Assay in all cases: NCI tumour cell line growth inhibition, 48 h
HOP-62 = test system: HOP-62
SK-OV-3 = test system: SK-OV-3
KM12 = test system: KM12
LOX IMVI = test system: LOX IMVI
HCT-116 = test system: HCT-116
DMS-273 = test system: DMS-273
OVCAR-8 = test system: OVCAR-8
LXFL 529 = test system: LXFL 529
NCI-H23 = test system: NCI-H23
OVCAR-5 = test system: OVCAR-5
CCRF-CEM = test system: CCRF-CEM
SNB-75 = test system: SNB-75
RXF 393 = test system: RXF 393
U-251 = test system: U-251
Malme-3M = test system: Malme-3M
SF-268 = test system: SF-268
SK-MEL-28 = test system: SK-MEL-28
HCC 2998 = test system: HCC 2998
SNB-19 = test system: SNB-19
UO-31 = test system: UO-31
DMS-114 = test system: DMS-114
A549 = test system: A549
HT-29 = test system: HT-29
A498 = test system: A498
IGROV-1 = test system: IGROV-1
NCI-H460 = test system: NCI-H460
SK-MEL-5 = test system: SK-MEL-5
HOP-18 = test system: HOP-18
NCI-H522 = test system: NCI-H522
KM-20L2 = test system: KM-20L2
UACC-257 = test system: UACC-257
EKVX = test system: EKVX
SF-295 = test system: SF-295
SK-MEL-2 = test system: SK-MEL-2
SF-539 = test system: SF-539
HOP-92 = test system: HOP-92
M19-MEL = test system: M19-MEL
SNB-78 = test system: SNB-78
DLD-1 = test system: DLD-1
TK-10 = test system: TK-10
K562 = test system: K562
SW-620 = test system: SW-620
HL-60 = test system: HL-60
OVCAR-3 = test system: OVCAR-3
786-0 = test system: 786-0
COLO 205 = test system: COLO 205
MOLT-4 = test system: MOLT-4
ACHN = test system: ACHN
XF498 = test system: XF498
RPMI-8226 = test system: RPMI-8226
UACC-62 = test system: UACC-62
SR = test system: SR
HCT-15 = test system: HCT-15
M14 = test system: M14
SN12C = test system: SN12C
NCI-H226 = test system: NCI-H226
CAKI-1 = test system: CAKI-1
OVCAR-4 = test system: OVCAR-4

## O=C(O)C12C3C4C1C1C2C3C1(Br)C41OCCO1 (stereo unspecified)
HOP-62
  GI50: > 100 µM (inactive)
SK-OV-3
  GI50: > 100 µM (inactive)
KM12
  GI50: > 100 µM (inactive)
LOX IMVI
  GI50: > 100 µM (inactive)
HCT-116
  GI50: > 100 µM (inactive)
DMS-273
  GI50: > 100 µM (inactive)
OVCAR-8
  GI50: > 100 µM (inactive)
LXFL 529
  GI50: > 100 µM (inactive)
NCI-H23
  GI50: > 100 µM (inactive)
OVCAR-5
  GI50: > 100 µM (inactive)
CCRF-CEM
  GI50: > 100 µM (inactive)
SNB-75
  GI50: > 100 µM (inactive)
RXF 393
  GI50: > 100 µM (inactive)
U-251
  GI50: > 100 µM (inactive)
Malme-3M
  GI50: > 100 µM (inactive)
SF-268
  GI50: > 100 µM (inactive)
SK-MEL-28
  GI50: > 100 µM (inactive)
HCC 2998
  GI50: > 100 µM (inactive)
SNB-19
  GI50: > 100 µM (inactive)
UO-31
  GI50: > 100 µM (inactive)
DMS-114
  GI50: > 100 µM (inactive)
A549
  GI50: > 100 µM (inactive)
HT-29
  GI50: > 100 µM (inactive)
A498
  GI50: > 100 µM (inactive)
IGROV-1
  GI50: > 100 µM (inactive)
NCI-H460
  GI50: > 100 µM (inactive)
SK-MEL-5
  GI50: > 100 µM (inactive)
HOP-18
  GI50: > 100 µM (inactive)
NCI-H522
  GI50: > 100 µM (inactive)
KM-20L2
  GI50: > 100 µM (inactive)
UACC-257
  GI50: > 100 µM (inactive)
EKVX
  GI50: > 100 µM (inactive)
SF-295
  GI50: > 100 µM (inactive)
SK-MEL-2
  GI50: > 100 µM (inactive)
SF-539
  GI50: > 100 µM (inactive)
HOP-92
  GI50: > 100 µM (inactive)
M19-MEL
  GI50: > 100 µM (inactive)
SNB-78
  GI50: > 100 µM (inactive)
DLD-1
  GI50: > 100 µM (inactive)
TK-10
  GI50: > 100 µM (inactive)
K562
  GI50: > 100 µM (inactive)
SW-620
  GI50: > 100 µM (inactive)
HL-60
  GI50: > 100 µM (inactive)
OVCAR-3
  GI50: > 100 µM (inactive)
786-0
  GI50: > 100 µM (inactive)
COLO 205
  GI50: > 100 µM (inactive)
MOLT-4
  GI50: > 100 µM (inactive)
ACHN
  GI50: > 100 µM (inactive)
XF498
  GI50: > 100 µM (inactive)
RPMI-8226
  GI50: > 100 µM (inactive)

## COC[C@@H](Cc1ccc(OC)c(OC)c1)[C@@H](COC)Cc1ccc(OC)c(OC)c1
SK-OV-3
  GI50: > 100 µM (inactive)
KM12
  GI50: > 100 µM (inactive)
LOX IMVI
  GI50: > 100 µM (inactive)
HCT-116
  GI50: 94 µM (inactive)
DMS-273
  GI50: 76.6 µM (inactive)
OVCAR-8
  GI50: > 100 µM (inactive)
LXFL 529
  GI50: 81.7 µM (inactive)
NCI-H23
  GI50: > 100 µM (inactive)
OVCAR-5
  GI50: > 100 µM (inactive)
CCRF-CEM
  GI50: 56.5 µM (inactive)
SNB-75
  GI50: > 100 µM (inactive)
RXF 393
  GI50: > 100 µM (inactive)
U-251
  GI50: > 100 µM (inactive)
Malme-3M
  GI50: > 100 µM (inactive)
SF-268
  GI50: > 100 µM (inactive)
SK-MEL-28
  GI50: > 100 µM (inactive)
HCC 2998
  GI50: > 100 µM (inactive)
SNB-19
  GI50: > 100 µM (inactive)
UO-31
  GI50: > 100 µM (inactive)
DMS-114
  GI50: 56.5 µM (inactive)
A549
  GI50: > 100 µM (inactive)
HT-29
  GI50: > 100 µM (inactive)
A498
  GI50: > 100 µM (inactive)
IGROV-1
  GI50: > 100 µM (inactive)
NCI-H460
  GI50: > 100 µM (inactive)
SK-MEL-5
  GI50: 51.9 µM (inactive)
HOP-18
  GI50: > 100 µM (inactive)
NCI-H522
  GI50: 64.1 µM (inactive)
UACC-62
  GI50: > 100 µM (inactive)
KM-20L2
  GI50: > 100 µM (inactive)
SR
  GI50: 95.3 µM (inactive)
UACC-257
  GI50: > 100 µM (inactive)
EKVX
  GI50: > 100 µM (inactive)
SF-295
  GI50: > 100 µM (inactive)
SK-MEL-2
  GI50: > 100 µM (inactive)
SF-539
  GI50: > 100 µM (inactive)
HOP-92
  GI50: 57.9 µM (inactive)
M19-MEL
  GI50: > 100 µM (inactive)
SNB-78
  GI50: > 100 µM (inactive)
DLD-1
  GI50: > 100 µM (inactive)
TK-10
  GI50: > 100 µM (inactive)
K562
  GI50: > 100 µM (inactive)
HCT-15
  GI50: > 100 µM
SW-620
  GI50: > 100 µM (inactive)
M14
  GI50: > 100 µM (inactive)
HL-60
  GI50: > 100 µM (inactive)
OVCAR-3
  GI50: > 100 µM (inactive)
COLO 205
  GI50: > 100 µM (inactive)
MOLT-4
  GI50: 60.3 µM (inactive)
ACHN
  GI50: > 100 µM (inactive)
XF498
  GI50: > 100 µM (inactive)
SN12C
  GI50: > 100 µM (inactive)

## CC(=O)Nc1ccc(C(=O)N2N=C(C)/C(=C/c3ccccc3O)C2=O)cc1
HOP-62
  GI50: > 100 µM (inactive)
KM12
  GI50: > 100 µM (inactive)
LOX IMVI
  GI50: > 100 µM (inactive)
HCT-116
  GI50: > 100 µM (inactive)
DMS-273
  GI50: > 100 µM (inactive)
OVCAR-8
  GI50: > 100 µM (inactive)
NCI-H23
  GI50: > 100 µM (inactive)
OVCAR-5
  GI50: > 100 µM (inactive)
CCRF-CEM
  GI50: > 100 µM (inactive)
SNB-75
  GI50: > 100 µM (inactive)
Malme-3M
  GI50: > 100 µM (inactive)
SF-268
  GI50: > 100 µM (inactive)
SK-MEL-28
  GI50: > 100 µM (inactive)
HCC 2998
  GI50: > 100 µM (inactive)
SNB-19
  GI50: > 100 µM (inactive)
UO-31
  GI50: > 100 µM (inactive)
DMS-114
  GI50: > 100 µM (inactive)
A549
  GI50: > 100 µM (inactive)
HT-29
  GI50: > 100 µM (inactive)
NCI-H460
  GI50: > 100 µM (inactive)
SK-MEL-5
  GI50: > 100 µM (inactive)
HOP-18
  GI50: 49.3 µM (inactive)
NCI-H522
  GI50: > 100 µM (inactive)
NCI-H226
  GI50: > 100 µM (inactive)
SR
  GI50: > 100 µM (inactive)
UACC-257
  GI50: > 100 µM (inactive)
CAKI-1
  GI50: > 100 µM (inactive)
EKVX
  GI50: > 100 µM (inactive)
SF-295
  GI50: > 100 µM (inactive)
SK-MEL-2
  GI50: > 100 µM (inactive)
SF-539
  GI50: > 100 µM (inactive)
M19-MEL
  GI50: > 100 µM (inactive)
SNB-78
  GI50: > 100 µM (inactive)
DLD-1
  GI50: > 100 µM (inactive)
TK-10
  GI50: > 100 µM (inactive)
K562
  GI50: > 100 µM (inactive)
HCT-15
  GI50: > 100 µM
SW-620
  GI50: > 100 µM (inactive)
M14
  GI50: > 100 µM (inactive)
HL-60
  GI50: > 100 µM (inactive)
OVCAR-3
  GI50: > 100 µM (inactive)
786-0
  GI50: > 100 µM (inactive)
COLO 205
  GI50: > 100 µM (inactive)
MOLT-4
  GI50: > 100 µM (inactive)
ACHN
  GI50: > 100 µM (inactive)
XF498
  GI50: > 100 µM (inactive)
SN12C
  GI50: > 100 µM (inactive)
OVCAR-4
  GI50: > 100 µM (inactive)
RPMI-8226
  GI50: > 100 µM (inactive)
